Source: patent US20240368163A1, “COMPOUNDS AND METHODS FOR MODULATING SPLICING” (REMIX THERAPEUTICS INC., priority 2021, published 2024)
pIC50: −log10 of the molar value.

Assays:
Type in all cases: cell-based, human
MYB [1] = assay: HiBiT protein abundance assay, MYB; conditions: Homo sapiens, K562, 24 h, modified K562 cells
Outline: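 HiBiT knock-in K562, 10000 cells/well, 24 h cpd at 37 °C/5% CO2; 10-pt 3-fold series from 10 μM final; DMSO ≤0.25%. Lytic detection, luminescence read. 4PL fit → IC50 vs DMSO control; unmodified K562 = baseline.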

MYB [2] = assay: Splicing RT-qPCR assay, MYB mRNA canonical junction (CJ) and alternative junction (AJ); conditions: Homo sapiens; for AC50: increase in AJ mRNA
Outline: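 A673 or K562 cells were treated 24 h at 37 °C with an 11-point 3-fold dilution series (top 10 uM final, DMSO ≤0.25%). Lysates underwent one-step RT-qPCR for canonical (CJ) and alternative (AJ) junctions; Ct normalized to GAPDH, GUSB or PPIA and DMSO control via 2^(−ΔΔCt), expressed as percentage response.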

Target C = assay: HiBiT protein abundance assay, Target C; conditions: Homo sapiens, K562, 24 h, modified K562 cells
Outline: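 Luminescence from lytic HiBiT detection, taken after 24 h compound exposure at 37 °C, reports tagged protein abundance in knock-in cells seeded at 10000 cells/well. Doses spanned 10 points, 3-fold steps, top 10 μM final. A four-parameter logistic fit gave the 50% abundance concentration (IC50).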

[3] = 24 h, decrease in CJ mRNA, A673 or K562 cells, 24 hours treatment, RT-qPCR, read-out: MYB CJ IC50
[4] = 24 h, A673 or K562 cells, 24 hours treatment, RT-qPCR
[5] = RT-qPCR panel, canonical junction mRNA, compound concentration having 50% response in CJ decrease, read-out: MYB IC50 (decrease in CJ mRNA levels)
[6] = gene panel, CJ qPCR, protocol of Example 142, read-out: MYB IC50 (decrease in CJ mRNA levels)

Compound	pIC50 (MYB [1]; Table 13A)	pIC50 (MYB [2]; [3])	AC50 (MYB [2]; [4]) [µM]	pIC50 (MYB [2]; [5])	pIC50 (Target C; Table 13A)	pIC50 (MYB [1]; Table 13B)	pIC50 (MYB [2]; [6])	pIC50 (Target C; Table 13B)
CN(c1ccc(-c2ccc(-c3cn[nH]c3)c3ncsc23)nn1)[C@@H]1C[C@H]2CC(F)(F)[C@@H](C1)N2 (stereo in doubt) [Compound 379, 6,6-difluoro-N-methyl-N-{6-[4-(1H-pyrazol-4-yl)-1,3-benzothiazol-7-yl]pyridazin-3-yl}-8-azabicyclo [3.2.1]octan-3-amine]	6.00 to 7.00	6.00 to 7.00	0.1 to 1	6.00 to 7.00	6.00 to 7.00			
CC1(C)CC(Oc2ccc(-c3cc(F)c(-c4cn[nH]c4)c4cn[nH]c34)nn2)CC(C)(C)N1 [Compound 307]	6.00 to 7.00	6.00 to 7.00	1 to 10	6.00 to 7.00	6.00 to 7.00			
c1nc2c(-c3cn[nH]c3)ccc(-c3ccc(N[C@@H]4C[C@H]5CCC[C@@H](C4)N5)nn3)c2s1 [Compound 215]	> 7.00	6.00 to 7.00	< 0.1	6.00 to 7.00	> 7.00			
CC1(C)CC(Oc2ccc(-c3ccc(-c4cn[nH]c4)c4ncsc34)nn2)CCN1 (centres unmarked) [Compound 182]	6.00 to 7.00	5.00 to 6.00	> 10	5.00 to 6.00	6.00 to 7.00			
c1nc2c(-c3cn[nH]c3)ccc(-c3ccc(N4CCC(NC5CC5)C4)nn3)c2s1 (centres unmarked) [Compound 337]	6.00 to 7.00	< 5.00	> 10	< 5.00	< 5.00			
COc1nc(-c2ccc(OC3CC4CC(F)(F)C(C3)N4)nn2)cc(F)c1-c1cn[nH]c1 (centres unmarked) [Compound 969]						6.00 to 7.00	< 5.00	6.00 to 7.00
CN(c1ccc(-c2ccc(-c3cn[nH]c3)cn2)nn1)[C@@H]1C[C@H]2CC[C@@H](C1)N2 [Compound 915]						5.00 to 6.00	6.00 to 7.00	5.00 to 6.00
Cc1cc(-c2ccc(-c3cnc(N(C)[C@@H]4C[C@H]5CCC[C@@H](C4)N5)nn3)c3scnc23)sn1 [Compound 580]	6.00 to 7.00			6.00 to 7.00	> 7.00			
CN(c1ccc(-c2ccc(-c3cn[nH]c3)c3ncsc23)nn1)[C@@H]1C[C@H]2CC[C@@H](C1)N2 [Compound 213]	> 7.00	6.00 to 7.00	0.1 to 1	6.00 to 7.00	> 7.00			
CCN(c1ccc(-c2ccc(-c3cn[nH]c3)c3ncsc23)nn1)[C@@H]1C[C@H]2CCC[C@@H](C1)N2 [Compound 228]	> 7.00	6.00 to 7.00	0.1 to 1	6.00 to 7.00	> 7.00			
CCOc1nc(-c2ccc(OC3CC(C)(C)NC(C)(C)C3)nn2)cc(F)c1-c1cn[nH]c1 [Compound 966]						> 7.00	6.00 to 7.00	> 7.00
Fc1cc(-c2ccc(OC3CC4CC(F)(F)C(C3)N4)nn2)c2[nH]ncc2c1-c1cn[nH]c1 (centres unmarked) [Compound 313, 7-[6-({6,6-difluoro-8-azabicyclo[3.2.1]octan-3-yl}oxy)pyridazin-3-yl]-5-fluoro-4-(1H-pyrazol-4-yl)-1H-indazole]	6.00 to 7.00	6.00 to 7.00	0.1 to 1	6.00 to 7.00	6.00 to 7.00			
COc1nc(-c2ccc(N3CCC(NC(C)(C)C)C3)nn2)ccc1-c1cn[nH]c1 (centres unmarked) [Compound 956]						6.00 to 7.00	6.00 to 7.00	6.00 to 7.00
CN(c1ccc(-c2ccc(-c3cn[nH]c3)c3cn[nH]c23)nn1)C1CC(C)(C)NC(C)(C)C1 [Compound 137]	6.00 to 7.00	5.00 to 6.00	1 to 10	5.00 to 6.00	6.00 to 7.00			
COc1cc(-c2ccc(-c3ccc(N(C)C4CC(C)(C)NC(C)(C)C4)nn3)c3scnc23)cnn1 [Compound 330]	6.00 to 7.00	6.00 to 7.00	0.1 to 1	6.00 to 7.00	> 7.00			
Cc1nc(-c2ccc(-c3cnc(N(C)[C@@H]4C[C@H]5CCC[C@@H](C4)N5)nn3)c3scnc23)cs1 [Compound 579]	5.00 to 6.00			5.00 to 6.00	6.00 to 7.00			
